These molecules were tested on rat's sciatic nerve (assay: Local anesthetic effect after injection near the rat sciatic nerve (von Frey stimulation; Postural Extensor Thrust for motor function)). Conditions: SD rats, 0.5 mL near sciatic nerve; Postural Extensor Thrust; compounds 20 mmol/mL, levobupivacaine 0.75%, lidocaine 2%.
Assay type: in vivo
Description: Dosage: for lidocaine group, lidocaine was formulated with distilled water into a solution at the concentration of 2% (74 mmol/L); for levobupivacaine group, levobupivacaine was formulated with distilled water into a solution at the concentration of 0.75% (22 mmol/L); the compound of the present invention was formulated with distilled water into a solution at the concentration of […].
The injection volume for each rat was 0.5 mL, which was guided by a nerve locator and injected near the rat's sciatic nerve. Using von Frey stimulator, the rats were stimulated the soles of the feet in the injected side, to observe the effect of local anesthesia. Meanwhile, Postural Extensor Thrust (PET) was used to evaluate the motor function of the rat: the rat was lifted vertically and the hindlimb in the injected side pedaled on the platform of the electronic balance. […] When the limb was completely paralyzed, the reading was the limb's own weight, about 20 g. If the measured value was more than half of the difference between the baseline and the limb weight, the motor function was regarded as recovery, and if the value was […], the motor function was regarded as loss.

SMILES | Duration of motor block [h]
COCC[N+](CCCCO)(CCCCCCN1CCCCC1C(=O)Nc1c(C)cccc1C)CC(=O)Nc1c(C)cccc1C (stereo not drawn) [Example 36 product] | 21
CCCCC[N+](CCCCCCCN1CCCCCC1C(=O)Nc1c(C)cccc1C)(CCOCC)CC(=O)Nc1c(C)cccc1C (stereo not drawn) [Example 70 product] | 17
CCCCCC[N+](CCCCCCN1CCCCC1C(=O)Nc1c(C)cccc1C)(CCOCCC)CC(=O)Nc1c(C)cccc1C (stereo not drawn) [Example 37 product] | 17
CCCCC[N+](CCCCCCCCN1CCCCCCC1C(=O)Nc1c(C)cccc1C)(CCOCC)CC(=O)Nc1c(C)cccc1C (stereo not drawn) [Example 25 product] | 12
CCCCC[N+](CCCCC)(CCCCCCCN1CCCCCC1C(=O)Nc1c(C)cccc1C)CC(=O)Nc1c(C)cccc1C (stereo not drawn) [Example 68 product] | 21
CCCCC[N+](CCCCO)(CCCCCCCN1CCCCCC1C(=O)Nc1c(C)cccc1C)CC(=O)Nc1c(C)cccc1C (stereo not drawn) [Example 26 product] | 16
Cc1cccc(C)c1NC(=O)C[N+]1(CCCCN2CCCCC2C(=O)Nc2c(C)cccc2C)C(C)COCC1C (stereo not drawn) [Example 51 product] | 19
Cc1cccc(C)c1NC(=O)C[N+](CCCCCCCS)(CCCCCCCN1CCCCC1C(=O)Nc1c(C)cccc1C)CCCCCC(=O)O (stereo not drawn) [Example 45 product] | 20
COCC[N+](CCCCCCN1CCCCC1C(=O)Nc1c(C)cccc1C)(CCOC)CC(=O)Nc1c(C)cccc1C.[Br-] (stereo not drawn) [Example 21 product] | 13

Same assay, conditions: SD rats, 0.5 mL near sciatic nerve; compounds 20 mmol/mL, levobupivacaine 0.75% (22 mmol/L), lidocaine 2% (74 mmol/L)

SMILES | Local anesthesia onset time [min]
COCC[N+](CCCCO)(CCCCCCN1CCCCC1C(=O)Nc1c(C)cccc1C)CC(=O)Nc1c(C)cccc1C (stereo not drawn) [Example 36 product] | 5
CCCCC[N+](CCCCCCCN1CCCCCC1C(=O)Nc1c(C)cccc1C)(CCOCC)CC(=O)Nc1c(C)cccc1C (stereo not drawn) [Example 70 product] | 2
CCCCCC[N+](CCCCCCN1CCCCC1C(=O)Nc1c(C)cccc1C)(CCOCCC)CC(=O)Nc1c(C)cccc1C (stereo not drawn) [Example 37 product] | 1
CCCCC[N+](CCCCCCCCN1CCCCCCC1C(=O)Nc1c(C)cccc1C)(CCOCC)CC(=O)Nc1c(C)cccc1C (stereo not drawn) [Example 25 product] | 5
CCCCC[N+](CCCCC)(CCCCCCCN1CCCCCC1C(=O)Nc1c(C)cccc1C)CC(=O)Nc1c(C)cccc1C (stereo not drawn) [Example 68 product] | 1
CCCCC[N+](CCCCO)(CCCCCCCN1CCCCCC1C(=O)Nc1c(C)cccc1C)CC(=O)Nc1c(C)cccc1C (stereo not drawn) [Example 26 product] | 5
Cc1cccc(C)c1NC(=O)C[N+]1(CCCCN2CCCCC2C(=O)Nc2c(C)cccc2C)C(C)COCC1C (stereo not drawn) [Example 51 product] | 5
Cc1cccc(C)c1NC(=O)C[N+](CCCCCCCS)(CCCCCCCN1CCCCC1C(=O)Nc1c(C)cccc1C)CCCCCC(=O)O (stereo not drawn) [Example 45 product] | 3
COCC[N+](CCCCCCN1CCCCC1C(=O)Nc1c(C)cccc1C)(CCOC)CC(=O)Nc1c(C)cccc1C.[Br-] (stereo not drawn) [Example 21 product] | 5

Same assay, conditions: SD rats, 0.5 mL near sciatic nerve; von Frey; compounds 20 mmol/mL, levobupivacaine 0.75%, lidocaine 2%

SMILES | Duration of sensory block [h]
COCC[N+](CCCCO)(CCCCCCN1CCCCC1C(=O)Nc1c(C)cccc1C)CC(=O)Nc1c(C)cccc1C (stereo not drawn) [Example 36 product] | 52
CCCCC[N+](CCCCCCCN1CCCCCC1C(=O)Nc1c(C)cccc1C)(CCOCC)CC(=O)Nc1c(C)cccc1C (stereo not drawn) [Example 70 product] | 53
CCCCCC[N+](CCCCCCN1CCCCC1C(=O)Nc1c(C)cccc1C)(CCOCCC)CC(=O)Nc1c(C)cccc1C (stereo not drawn) [Example 37 product] | 45
CCCCC[N+](CCCCCCCCN1CCCCCCC1C(=O)Nc1c(C)cccc1C)(CCOCC)CC(=O)Nc1c(C)cccc1C (stereo not drawn) [Example 25 product] | 44
CCCCC[N+](CCCCC)(CCCCCCCN1CCCCCC1C(=O)Nc1c(C)cccc1C)CC(=O)Nc1c(C)cccc1C (stereo not drawn) [Example 68 product] | 79
CCCCC[N+](CCCCO)(CCCCCCCN1CCCCCC1C(=O)Nc1c(C)cccc1C)CC(=O)Nc1c(C)cccc1C (stereo not drawn) [Example 26 product] | 45
Cc1cccc(C)c1NC(=O)C[N+]1(CCCCN2CCCCC2C(=O)Nc2c(C)cccc2C)C(C)COCC1C (stereo not drawn) [Example 51 product] | 44
Cc1cccc(C)c1NC(=O)C[N+](CCCCCCCS)(CCCCCCCN1CCCCC1C(=O)Nc1c(C)cccc1C)CCCCCC(=O)O (stereo not drawn) [Example 45 product] | 58
COCC[N+](CCCCCCN1CCCCC1C(=O)Nc1c(C)cccc1C)(CCOC)CC(=O)Nc1c(C)cccc1C.[Br-] (stereo not drawn) [Example 21 product] | 47

What follows are molecules tested on back skin of SD rat (assay: Local anesthetic effect by subcutaneous infiltration (back skin, Von Frey fiber 100 g)). Conditions: SD rats, 0.5 mL subcutaneous in saline; compounds 6 mmol/L, controls 0.75% (22 mmol/L) and 2% (74 mmol/L).
Assay type: in vivo
Description: After the back of SD rat weighing 250-300 g (half female and half male) was shaved and disinfected, a circle with a diameter of about 1.5 cm was drawn on the side of the exposed back, and the circle is divided into 6 equal parts. […] Among the Von Frey fiber yarns, the one with a strength of 100 g was bound to the needle for local skin stimulation. One minute After the drug was injected, the above method was used to stimulate in 6 divisions. […] If back skin contraction was observed, the local anesthetic effect was considered as loss. […] Each compound was tested with 10 rats.

SMILES | Duration of local anesthesia (median) [h] | Local anesthesia onset time (median) [min]
COCC[N+](CCCCO)(CCCCCCN1CCCCC1C(=O)Nc1c(C)cccc1C)CC(=O)Nc1c(C)cccc1C (stereo not drawn) [Example 36 product] | 81 | 1
CCCCC[N+](CCCCCCCN1CCCCCC1C(=O)Nc1c(C)cccc1C)(CCOCC)CC(=O)Nc1c(C)cccc1C (stereo not drawn) [Example 70 product] | 75 | 4
CCCCCC[N+](CCCCCCN1CCCCC1C(=O)Nc1c(C)cccc1C)(CCOCCC)CC(=O)Nc1c(C)cccc1C (stereo not drawn) [Example 37 product] | 64 | 1
CCCCC[N+](CCCCCCCCN1CCCCCCC1C(=O)Nc1c(C)cccc1C)(CCOCC)CC(=O)Nc1c(C)cccc1C (stereo not drawn) [Example 25 product] | 82 | 3
CCCCC[N+](CCCCC)(CCCCCCCN1CCCCCC1C(=O)Nc1c(C)cccc1C)CC(=O)Nc1c(C)cccc1C (stereo not drawn) [Example 68 product] | 73 | 3
CCCCC[N+](CCCCO)(CCCCCCCN1CCCCCC1C(=O)Nc1c(C)cccc1C)CC(=O)Nc1c(C)cccc1C (stereo not drawn) [Example 26 product] | 92 | 3
Cc1cccc(C)c1NC(=O)C[N+]1(CCCCN2CCCCC2C(=O)Nc2c(C)cccc2C)C(C)COCC1C (stereo not drawn) [Example 51 product] | 89 | 1
Cc1cccc(C)c1NC(=O)C[N+](CCCCCCCS)(CCCCCCCN1CCCCC1C(=O)Nc1c(C)cccc1C)CCCCCC(=O)O (stereo not drawn) [Example 45 product] | 89 | 1
COCC[N+](CCCCCCN1CCCCC1C(=O)Nc1c(C)cccc1C)(CCOC)CC(=O)Nc1c(C)cccc1C.[Br-] (stereo not drawn) [Example 21 product] | 64 | 1

Reference: US20220135526A1, “QUATERNARY AMMONIUM SALT COMPOUND, PREPARATION METHOD THEREFOR AND USE THEREOF” (WEST CHINA HOSPITAL, SICHUAN UNIVERSITY, priority 2019, published 2022)
